Data as given in US5369111A, “Modulator agent and use thereof” (University of Vermont, priority 1992, dated 1994).
“Also recorded” adds a separate entry of the source. Read-outs that look alike come from different tables or passages of the source.

How the values were obtained:
[1] = tested on: S180 MDR cell strains A3 and A10; experiment: Modulation of acquired drug resistance in the S180 MDR cell strains A3 and A10; type: cell-based, murine; conditions: A3 and A10
Protocol: (§1) Mid-exponential cultures were used for all assays. The RCC-2 and RCC-5 cell lines were seeded into 24-well plates at 2×10^4 cells/well and allowed to attach to the substratum for 16-18 h prior to treatment. The S180 cell lines were seeded into culture tubes at 1×10^5 cells/ml and treated immediately. Cytotoxicity was determined by quantitation of population growth after 72 h incubation by electronic particle counter (Coulter Electronics, Hialeah, Fla.). The human tumor cell lines were used in a clonogenic assay for cytotoxicity. Cells were seeded at 300 cells/dish, incubated overnight and then treated. Colonies were scored 7-11 days later. In all assays of analog modulation of drug sensitivity, the analog was added minutes prior to the addition of cytotoxic drug.
(§2) To evaluate the ability of vindoline and the two diastereoisomeric VBL analogs to modulate the MDR phenotype (acquired resistance) of the A3 and A10 cell stains, we determined the concentration of compound required to restore drug sensitivities to parental levels. This was done by exposing the MDR cell line to a concentration range of modulator in the presence VBL, VCR and ADM at the respective IC70s of the parental cell line. The cytotoxicity curves for A3 and A10 cells, shown in FIG. 5, are distinctive among the three vinca alkaloids examined. In each cell line, there was a minimum concentration of modulator that elicited 70% growth inhibition for each drug - i.e. the reversing concentration.
FIG. 5 represents the modulation of multidrug resistance in the MDR cell strains by the vinca alkaloids. Vindoline (A), vincovaline (B), or the analog C-20'-deoxy vincovaline (C) was added, at various concentrations, to A3 (closed symbols) or A10 (opened symbols) cell cultures containing the parental IC70 of each drug: 2.0×10^-7 M. ADM (circles: 1.5×10^-8 M VBL (triangles); and 4.5×10^-8 M; VCR (squares). Population growth was determined 72 hours later.
FIG. 6 represents the relationship between cellular drug resistance level and the minimal modulator concentration required for complete reversal of drug resistance. The drugs examined were ADM (o), VBL (Δ), and VCR (.quadrature.). The amount (concentration) of modulator, necessary to reverse each level of drug resistance contained in the A3 and A10 cell lines, was determined from data such as those of FIG. 5. The values presented were averaged from duplicate samples of two separate experiments, S.D.<15% of the mean. The arrows denote the non-toxic concentration limit for the modulator; in the case of Vincovaline this value is dependent on the MDR cell strain, 2×10^-5 M, A3; 5×10^-5 M. A10.
FIG. 11 represents the modulation of multidrug resistance in the S180 MDR cell strains A3 and A10. The cellular drug resistance level is plotted against the minimal concentration of C-20'-deoxy deethyl vincovaline required for the complete reversal of drug resistance to ADM (o), VBL (Δ), and VCR (.quadrature.). In the case of high level ADM resistance […], the sensitivity of the cells was restored to 80% of the parental value. The arrow denotes the non-toxic concentration limit of the analog.

[2] = Inhibition of population growth of rat colon cancer cell lines RCC-2 and RCC-5; type: cell-based; conditions: rat, rcc-2 and rcc-5 cells; read-out: non-toxic concentration limit
Text: The analogs were examined in a panel of tumor cell lines of both intrinsic and acquired drug resistance, as described in Table 1. The rat colon adenocarcinoma cell lines RCC-2 and RCC-5 (ref. 13) were maintained in Ham's F12 medium supplemented with 5% heat-inactivated, fetal bovine serum (Sterile Systems. Hyclone, Logan, Utah). The two rat colon cancer cell lines differ in their degree of cellular differentiation; whereas the RCC-2 cell line is undifferentiated, the RCC-5 cell line is highly mucinous. The human epidermoid carcinoma cell line KB-3-1 and its MDR variant KB-Vl, selected by VBL treatment (ref. 14; courtesy of M. Gottesman. National Cancer Institute), was maintained in DMEM medium supplemented with 10%, heat-inactivated, fetal bovine serum. […]
Mid-exponential cultures were used for all assays. […] Cytotoxicity was determined by quantitation of population growth after 72 h incubation by electronic particle counter (Coulter Electronics, Hialeah, Fla.). […] Colonies were scored 7-11 days later. […]
FIG. 7 represents the toxicity of analog C-20'-deoxy vincovaline (A) and C-20'-deoxy deethyl vincovaline (B) to population growth of the rat colon adenocarcinoma cell lines. The congener was added at various concentrations to RCC-2 (.cndot.) and RCC-5 (Δ) cell cultures and the population cell number was determined 72 hours later. […]

[3] = tested on: S180 cell system (S180, A3, A10); experiment: Inherent cytotoxicity in the S180 cell system (S180, A3, A10); type: cell-based, murine; conditions: for IC50: Mus musculus; for inherent cytotoxicity / resistance profile (in words): S180, A3, A10
Text: (§3) The analogs were examined in a panel of tumor cell lines of both intrinsic and acquired drug resistance, as described in Table 1. The rat colon adenocarcinoma cell lines RCC-2 and RCC-5 (ref. 13) were maintained in Ham's F12 medium supplemented with 5% heat-inactivated, fetal bovine serum (Sterile Systems. Hyclone, Logan, Utah). The two rat colon cancer cell lines differ in their degree of cellular differentiation; whereas the RCC-2 cell line is undifferentiated, the RCC-5 cell line is highly mucinous. The human epidermoid carcinoma cell line KB-3-1 and its MDR variant KB-Vl, selected by VBL treatment (ref. 14; courtesy of M. Gottesman. National Cancer Institute), was maintained in DMEM medium supplemented with 10%, heat-inactivated, fetal bovine serum. The murine sarcoma cell line […] and its MDR strains A3 and A10 selected by ADM treatment (ref. 15; courtesy of T. Tritton, Dept. Pharmacology, Univ. Vermont). were maintained in DMEM medium supplemented with 10% heat-inactivated, horse serum (Hazelton Biolog. Lenexa, Kans.). Stock cultures were subcultured twice weekly upon reaching the late exponential phase of population growth: population doubling times were 18-24 h. Antibiotics were not used in stock or experimental cultures. The MDR cell strains were grown in drug-free media for 48 h prior to experimental use.
as §1
FIG. 2 represents the toxicity of the vinca alkaloid compounds to population growth. Vindoline, vincovaline or the analog, C-20'-deoxy vincovaline was added, at various concentrations, to S180 (.cndot.), A3 (o), or A10 (Δ) cell cultures. The population cell number was determined 72 hours later.

[4] = tested on: RCC-2 and RCC-5 cells; experiment: Modulation of intrinsic drug resistance, RCC-2 and RCC-5; type: cell-based, rat; conditions: at the non-toxic concentration limit of 1-2 μM
Protocol: as §1

[5] = tested on: S180 cells, parental; experiment: Modulation of intrinsic drug resistance, parental S180; type: cell-based, murine; conditions: for effect on VBL toxicity in parental S180 cells (in words): 50-fold concentration range; for modulation of sensitivity of parental S180 cells to VBL, VCR and ADM (in words): all three drugs
Protocol: as §1
The ability of the compounds to modulate drug sensitivity in parental cells was studied over a range of concentrations of each compound, from 10^-6 M to the non-toxic (IC10-20) or solubility limit. […] From such experiments, we determined a sensitivity index derived from the IC50 of the drug without modulator treatment divided by the drug IC50 at each concentration of modulator.
When the sensitivity index for each drug, VBL, VCR and ADM is plotted versus the modulator concentration (FIG. 4), we can compare the relative potencies of the compounds as modulators of drug toxicity to the parental S180 cells.
*calculated as the IC50 of the drug alone divided by the IC50 o
the [drug modulator] combination. Data are presented from tretments with
FIG. 4 represents the potency of the vinca alkaloid compounds as modulators of drug sensitivity in S180 cells. The enhancement of sensitivity was calculated as the sensitivity index=IC50 of the drug alone divided by the IC50 of the drug+modulator. The IC50s for ADM (o) VBL (Δ), or VCR (.quadrature.) were determined over a concentration range of each modulator from data such as those depicted in FIG. 3. The values presented were averaged from duplicate samples of two separate experiments, S.D. <15% of the mean.

[6] = tested on: S180/A10 cells; experiment: Modulator potency in MDR cells: reversal of acquired resistance, S180/A10; type: cell-based, murine; conditions: A10 cells, 90 fold ADM resistance
Protocol: as §1, §2
*The minimal concentration of modulator required to restore the drug
sensitivity of S180/MDR cell strains to that of parental S180 cells. Data
are the averages of 2-3 separate experiments, S.D. ≤20%.

[7] = Inhibition of population growth (cytotoxicity), MDR strain S180/A3; type: cell-based, mouse; conditions: mouse, s180/a3 cells; read-out: non-toxic concentration limit for the modulator
Text: as §3, §1

[8] = Inhibition of population growth (cytotoxicity), MDR strain S180/A10; type: cell-based, mouse; conditions: mouse, s180/a10 cells; read-out: non-toxic concentration limit for the modulator
Text: as §3, §1

[9] = listed as C-20'-deoxy Vincovaline

SMILES	modulation of cellular resistance to VBL, VCR and ADM in MDR cell strains (in words) [1]	modulation of cellular resistance to VBL, VCR and ADM in MDR cell strains (in words) ([1]; 16', 20'-epi-VBL)	MNTC at 72 h [2] [nM]	IC50 ([3]; S-180, read-out: IC50 (inhibition of cell growth)) [µM]	inherent cytotoxicity / resistance profile (in words) [3]	inherent cytotoxicity / resistance profile (in words) ([3]; 16', 20'-epi-VBL)	non-toxic concentration limit (in words) ([3]; S180 cell system)	sensitization to VBL, VCR and ADM [4]	effect on VBL toxicity in parental S180 cells (in words) [5]	effect on VBL toxicity in parental S180 cells (in words) [5, 9]	modulation of VCR and ADM cytotoxicity in parental S180 cells (in words) [5]	modulation of VCR and ADM cytotoxicity in parental S180 cells (in words) [5, 9]	modulation of VCR and ADM cytotoxicity in parental S180 cells (in words) ([5]; listed as C-29'-deoxy vincovaline)	reversal of high level ADM resistance (in words) [6]	modulation of cellular resistance to VBL, VCR and ADM in MDR cell strains (in words) ([1]; listed as C-14', 16', 20'-epi-VBL)	IC50 ([3]; S-180, S180 parental and MDR cell lines, read-out: IC50 (inhibition of cell growth)) [µM]	modulation of sensitivity of parental S180 cells to VBL, VCR and ADM (in words) [5]	modulation of sensitivity of parental S180 cells to VBL, VCR and ADM (in words) ([5]; listed as Vincovaline)	MNTC at 72 h [7] [µM]	MNTC at 72 h [8] [µM]
CC[C@H]1C[C@H]2CN(CCc3c([nH]c4ccccc34)[C@](C(=O)OC)(c3cc4c(cc3OC)N(C)[C@H]3[C@@](O)(C(=O)OC)[C@H](OC(C)=O)[C@]5(CC)C=CCN6CC[C@]43[C@@H]65)C2)C1 [C-20'-deoxy vincovaline, C-20'-deoxy C-14', 16', 20'-epi-VBL]	reverses MDR in the A3 and A10 cell strains, without evidence of drug-specificity	modulators of cellular resistance to VBL, VCR and ADM	1000 to 2000	> 10	very weak cytotoxic agent	cross-resistance	beyond the limits of solubility	2- to 4 fold	no effect on cell sensitivity to VBL	no effect on VBL toxicity	progressive sensitization of the cells to the drug with increasing analog concentrations; also recorded: similar, concentration-dependent enhancement of VCR and ADM cytotoxicity; also recorded: sensitizes S180 cells to ADM and VCR but not to VBL	similar, concentration-dependent enhancement	most potent modulator of intrinsic resistance to ADM and VCR	reversing completely the high level ADM resistance (90 fold)	–	–	–	–	–	–
CC[C@@]1(O)C[C@H]2CN(CCc3c([nH]c4ccccc34)[C@](C(=O)OC)(c3cc4c(cc3OC)N(C)[C@H]3[C@@](O)(C(=O)OC)[C@H](OC(C)=O)[C@]5(CC)C=CCN6CC[C@]43[C@@H]65)C2)C1 [vincovaline, C-14', 16', 20'-epi-VBL]	significant activity with MDR cells is coincident with its non-toxic concentration limit in each cell line	–	–	–	cross-resistance	–	–	–	–	–	–	–	–	limited in this activity by their own cytoxicity in the MDR cell lines	modulators of cellular resistance to VBL, VCR and ADM	> 10	sensitized the parental S180 cells to all three drugs	weak modulator of drug sensitivity; also recorded: poor modulator of drug sensitivity in the parental cell line	20	50
